Laboratory results as given in PMC11243149, “Assessing the Effects of Thiazole-Carboxamide Derivatives on the Biophysical Properties of AMPA Receptor Complexes as a Potential Neuroprotective Agent” (Molecules, 2024).
Where two headings read alike, the source gives them in different places.

Experiments:
Format in all cases: cell-based
GluA2/3 = biological target: T1, GluA2/3 (Homo sapiens, UniProt P42262+P42263); test: Whole-cell patch-clamp recordings of heteromeric GluA2/3 AMPAR in transfected HEK293T cells; settings: for Amplitude (glutamate plus TC compound): 10 mM glutamate + TC compound (12 µM optimal concentration), HEK293T, -60 mV, pH 7.4, 22 °C, mean ± SEM; for Amplitude (glutamate plus TC compound) / Amplitude, applying glutamate alone after TC compound: n = 10; for Amplitude, applying glutamate alone after TC compound: 10 mM glutamate alone after 20 s wash following the TC compound; for A/AI: ratio of current with glutamate alone (A) to inhibited current after TC compound (AI); for t deact: weighted tau of deactivation, 10 mM glutamate for 1 ms, glutamate alone 2.6±0.3; for t deact / t des: with TC compound; for t des: weighted tau of desensitization, 10 mM glutamate 500 ms, glutamate alone 2.7±0.2
T1 construct: expressed in transfected cells; host or cells: HEK293T
Description: (§1) The effect of five TC compounds on whole-cell currents of four AMPAR subunits (GluA1, GluA1/2, GluA2, and GluA2/3) was investigated using transfected HEK293T cells. Each compound was applied separately to each subunit, with experiments conducted on 8–10 cells per condition to ensure reproducibility. […] At a glutamate concentration of 10 mM and a 500 ms protocol, approximately 95% of AMPAR channels were open. The A/AI ratio was calculated to compare the results, where A represents normalized current readings and AI indicates the inhibited current following TC compound exposure. […] Following closely, TC-1 inhibited the tested subunits by 5-fold.
(§2) The IC50 values were examined using GraphPad Prism software 9.5.0.730 (x64) (Table S6), which confirmed these findings. The IC50 values of TC substances were calculated by standardizing the peak current amplitudes using data obtained from 8–10 cells. Following a 500 ms exposure to the compounds, the cells were rinsed with glutamate for 20 s. Next, a solution containing just glutamate at a concentration of 10 mM was administered, and the resulting immediate induced electrical current was measured and documented (Figure 3).
(§3) In addition, an evaluation was conducted on the deactivation rates (τw deact) of all the examined chemicals to investigate their impact on the kinetics of deactivation. The chemicals were assessed for their effect on the deactivation kinetics of AMPAR subunits by briefly administering 10 mM glutamate for 1 ms to begin currents. This experimental setup allowed for the observation of τw deact under controlled conditions. […] TC-5 induced an approximately 2-fold increase in τw deact across all four tested subunits. […] These findings highlight the differential impact of TC compounds on deactivation kinetics across AMPAR subunits, shedding light on their potential neuroprotective mechanisms.
(§4) The flip isoform was uniformly employed across all AMPAR subunits in this study. These subunits were subcloned into the pRK vector and expressed in Human Embryonic kidney cells sourced (Sigma, München, Germany). HEK293T cells were grown in Dulbecco Modified Eagle Medium (DMEM) (Sigma, München, Germany) containing 10% FBS (fetal bovine serum), 0.1 mg/mL streptomycin, and 1 mM sodium pyruvate (Biological Industries; Beit-Haemek, Israel). HEK293T cells were incubated at 37 °C and 5% CO2 was supplemented to the medium. It was subcultured twice a week until cells reached pass #20. The transfection reagent used was either jetPRIME (Polyplus: New York, NY, USA) or Lipofectamine 2000 (Invitrogen; San Diego, CA, USA). Cells were kept for 36 h. after transfection in 12-well plates. Then, they were replated on coverslips coated with Laminin (1 mg/mL; Sigma, Germany) for electrophysiology recordings. Cells were then seeded in Petri dishes in DMEM supplemented with 10% fetal calf serum and antibiotics and maintained in a humidified incubator at 37 °C and 5% CO2. Highly fluorescent cells were identified and selected for recording post-transfection.
(§5) HEK293T cells were recorded for 36–48 h, at a temperature of 22 °C, with a membrane potential of −60 mV. HEK293T cells were recorded 36–48 h after transfection using IPA (Integrated Patch Amplifier) via the […], at a temperature of 22 °C, with a membrane potential of −60 mV. SutterPatch Software v. 1.1.1 (Sutter Instruments, Novato, CA, USA) was used to digitize membrane currents for a short period. The sampling frequency was set to 10 kHz, and the low-pass filter was set to 2 kHz. Borosilicate glass was used to fabricate the patch electrodes with a resistance of 2–4 MΩ. The extracellular solution contained the following (values are in mM): 150 NaCl, 2.8 KCl, 0.5 MgCl2, 2 CaCl2, and 10 HEPES, adjusted to pH 7.4 with NaOH. The pipette solution contained the following (values are in mM): 110 CsF, 30 CsCl, 4 NaCl, 0.5 CaCl2, 10 […], and 10 HEPES, adjusted to pH 7.2 with CsOH. […]

[1] = tested on: AMPAR subunits (GluA1, GluA1/2, GluA2, and GluA2/3); test: Whole-cell patch-clamp recordings, statements over all tested AMPAR subunits; settings: for reduction in τw des: across all examined subunits; for increase in τw deact / decrease in AMPAR subunit activity (inhibition of the whole-cell current): all tested subunits; for increase in τw deact: 10 mM glutamate for 1 ms; for decrease in AMPAR subunit activity (inhibition of the whole-cell current): 10 mM glutamate, 500 ms protocol
Description: as §1
A thorough investigation was performed to assess the neuroprotective potential of the TC compounds. The influence of the five TC compounds on the desensitization traces is seen in Figure 4, namely in panels b, d, f, and h. TC-2 caused a substantial reduction in τw des in all receptor subunits, with decreases ranging from 2 to 3 times.
as §3, §4
as §5, with “CsOH. Using double barrel glass (theta tube), glutamate and the solutions of choice were rapidly administered, and the theta tube was mounted on a high-speed piezo solution switcher (Automate Scientific, Berkeley, CA, USA).” for “CsOH.”

GluA1 = biological target: T2, GluA1 (Homo sapiens, UniProt P42261); test: Whole-cell patch-clamp recordings of homomeric GluA1 AMPAR in transfected HEK293T cells; settings: for Amplitude (glutamate plus TC compound) / Amplitude, applying glutamate alone after TC compound / IC50 / A/AI / t deact / t des: GluA1; for Amplitude (glutamate plus TC compound): 10 mM glutamate + TC compound (12 µM optimal concentration), HEK293T, -60 mV, pH 7.4, 22 °C, mean ± SEM; for Amplitude (glutamate plus TC compound) / Amplitude, applying glutamate alone after TC compound: n = 10; for Amplitude, applying glutamate alone after TC compound: 10 mM glutamate alone after 20 s wash following the TC compound; for A/AI: ratio of current with glutamate alone (A) to inhibited current after TC compound (AI); for t deact: weighted tau of deactivation, 10 mM glutamate for 1 ms, glutamate alone 2.1±0.1; for t deact / t des: with TC compound; for t des: weighted tau of desensitization, 10 mM glutamate 500 ms, glutamate alone 2.5±0.1; for influence on τw des: GluA1 subunit
T2 construct: expressed in transfected cells; host or cells: HEK293T
Description: as §1, §2, §3, §4, §5

GluA1/2 = biological target: T3, GluA1/2 (Homo sapiens, UniProt P42261+P42262); test: Whole-cell patch-clamp recordings of heteromeric GluA1/2 AMPAR in transfected HEK293T cells; settings: for Amplitude (glutamate plus TC compound): 10 mM glutamate + TC compound (12 µM optimal concentration), HEK293T, -60 mV, pH 7.4, 22 °C, mean ± SEM; for Amplitude (glutamate plus TC compound) / Amplitude, applying glutamate alone after TC compound: n = 10; for Amplitude, applying glutamate alone after TC compound: 10 mM glutamate alone after 20 s wash following the TC compound; for A/AI: ratio of current with glutamate alone (A) to inhibited current after TC compound (AI); for t deact: weighted tau of deactivation, 10 mM glutamate for 1 ms, glutamate alone 2.5±0.3; for t deact / t des: with TC compound; for t des: weighted tau of desensitization, 10 mM glutamate 500 ms, glutamate alone 5.2±0.5
T3 construct: expressed in transfected cells; host or cells: HEK293T
Description: as §1, §2, §3, §4, §5

[2] = Table S6, peak current amplitudes, 8-10 cells, GraphPad Prism fit, read-out: IC50
[3] = Table S6, read-out: Log IC50 (converted)

T1 sequence (P42262 25-883 isoform P42262-2 limits assumed): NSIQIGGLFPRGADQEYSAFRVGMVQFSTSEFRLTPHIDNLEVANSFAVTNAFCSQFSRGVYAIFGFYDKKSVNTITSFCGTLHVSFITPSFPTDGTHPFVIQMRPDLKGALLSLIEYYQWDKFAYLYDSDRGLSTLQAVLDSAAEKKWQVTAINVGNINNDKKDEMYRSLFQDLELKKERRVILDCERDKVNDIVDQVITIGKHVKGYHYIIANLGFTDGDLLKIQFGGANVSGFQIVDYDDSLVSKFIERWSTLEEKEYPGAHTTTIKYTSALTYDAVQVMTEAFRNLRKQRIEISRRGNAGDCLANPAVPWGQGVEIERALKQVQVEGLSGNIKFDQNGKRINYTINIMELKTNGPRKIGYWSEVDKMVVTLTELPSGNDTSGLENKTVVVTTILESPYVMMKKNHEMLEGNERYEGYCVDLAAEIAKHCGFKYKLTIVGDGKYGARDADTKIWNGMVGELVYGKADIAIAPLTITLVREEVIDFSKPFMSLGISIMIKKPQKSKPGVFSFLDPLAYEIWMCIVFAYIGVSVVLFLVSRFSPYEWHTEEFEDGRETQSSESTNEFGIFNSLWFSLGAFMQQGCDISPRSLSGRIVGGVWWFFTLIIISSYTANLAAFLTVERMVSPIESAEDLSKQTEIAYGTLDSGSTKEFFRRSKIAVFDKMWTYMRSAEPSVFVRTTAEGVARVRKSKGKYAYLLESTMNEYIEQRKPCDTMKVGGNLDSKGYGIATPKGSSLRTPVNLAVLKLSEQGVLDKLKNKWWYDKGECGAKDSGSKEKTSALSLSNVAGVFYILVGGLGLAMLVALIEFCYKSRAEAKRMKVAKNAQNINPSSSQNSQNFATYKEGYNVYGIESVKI
T1 sequence (P42263 29-894 isoform P42263-2 limits assumed): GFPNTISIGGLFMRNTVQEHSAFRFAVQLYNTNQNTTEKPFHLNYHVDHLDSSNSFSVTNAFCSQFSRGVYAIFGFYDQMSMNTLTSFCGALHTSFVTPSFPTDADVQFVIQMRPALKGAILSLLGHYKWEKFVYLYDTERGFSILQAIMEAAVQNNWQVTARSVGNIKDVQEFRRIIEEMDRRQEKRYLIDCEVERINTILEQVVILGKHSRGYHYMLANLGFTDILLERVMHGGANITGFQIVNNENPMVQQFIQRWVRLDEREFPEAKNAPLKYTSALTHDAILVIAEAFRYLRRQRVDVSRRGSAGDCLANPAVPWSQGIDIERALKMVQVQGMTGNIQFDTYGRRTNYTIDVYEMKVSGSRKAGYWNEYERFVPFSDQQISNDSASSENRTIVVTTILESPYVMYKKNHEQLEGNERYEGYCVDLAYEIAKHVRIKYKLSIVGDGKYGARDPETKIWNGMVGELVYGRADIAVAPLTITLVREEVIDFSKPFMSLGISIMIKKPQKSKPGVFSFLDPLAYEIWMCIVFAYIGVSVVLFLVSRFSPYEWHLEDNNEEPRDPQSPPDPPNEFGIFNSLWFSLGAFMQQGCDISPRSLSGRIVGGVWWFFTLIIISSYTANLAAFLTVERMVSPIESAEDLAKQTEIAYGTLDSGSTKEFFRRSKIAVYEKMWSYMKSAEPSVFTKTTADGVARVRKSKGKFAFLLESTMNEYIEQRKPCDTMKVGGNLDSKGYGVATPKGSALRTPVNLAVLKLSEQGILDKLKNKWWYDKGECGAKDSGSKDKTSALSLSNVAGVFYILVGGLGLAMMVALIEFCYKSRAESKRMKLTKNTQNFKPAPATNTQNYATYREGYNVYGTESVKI
T2 sequence (P42261 19-906 isoform P42261-2 limits assumed, species assumed): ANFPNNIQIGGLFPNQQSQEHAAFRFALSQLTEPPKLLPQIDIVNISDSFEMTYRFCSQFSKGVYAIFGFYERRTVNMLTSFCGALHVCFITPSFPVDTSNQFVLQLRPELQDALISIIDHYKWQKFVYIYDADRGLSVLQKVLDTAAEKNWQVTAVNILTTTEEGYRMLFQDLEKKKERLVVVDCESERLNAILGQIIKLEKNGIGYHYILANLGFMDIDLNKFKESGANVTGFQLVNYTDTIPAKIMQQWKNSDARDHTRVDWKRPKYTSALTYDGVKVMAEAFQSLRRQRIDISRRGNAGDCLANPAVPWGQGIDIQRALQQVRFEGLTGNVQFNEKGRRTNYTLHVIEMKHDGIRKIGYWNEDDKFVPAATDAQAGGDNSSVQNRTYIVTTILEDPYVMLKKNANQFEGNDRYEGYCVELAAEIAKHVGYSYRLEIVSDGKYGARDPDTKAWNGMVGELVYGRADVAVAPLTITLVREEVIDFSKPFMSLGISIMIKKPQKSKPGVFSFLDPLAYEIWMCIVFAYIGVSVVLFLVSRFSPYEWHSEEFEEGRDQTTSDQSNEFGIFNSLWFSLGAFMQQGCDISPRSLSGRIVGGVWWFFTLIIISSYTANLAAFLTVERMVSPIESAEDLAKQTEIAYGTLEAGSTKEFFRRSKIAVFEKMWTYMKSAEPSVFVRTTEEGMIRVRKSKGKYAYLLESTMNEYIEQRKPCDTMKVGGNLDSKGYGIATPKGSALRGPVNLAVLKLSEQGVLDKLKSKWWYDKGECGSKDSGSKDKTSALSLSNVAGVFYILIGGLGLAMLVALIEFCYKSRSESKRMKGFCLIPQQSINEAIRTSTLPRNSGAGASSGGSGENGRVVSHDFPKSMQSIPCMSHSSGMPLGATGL
T3 sequence (P42261 19-906 isoform P42261-2 limits assumed): as the sequence (P42261 19-906 isoform P42261-2 limits assumed, species assumed) above
T3 sequence (P42262 25-883 isoform P42262-2 limits assumed): as the sequence (P42262 25-883 isoform P42262-2 limits assumed) above

Compound: COc1ccc(-c2nc(C(=O)Nc3ccc(OC)c(OC)c3)cs2)cc1 [TC-1]
- Amplitude (glutamate plus TC compound) (GluA2/3): 102±13 pA
- Amplitude, applying glutamate alone after TC compound (GluA2/3): 491±61 pA
- IC50 (GluA2/3; [2]): 3.38 µM
- IC50 (GluA2/3; [3]): 3.39 µM
- A/AI (GluA2/3): 4.95±0.19
- t deact (GluA2/3): 5.6 ± 0.4 ms
- t des (GluA2/3): 1.2 ± 0.3 ms
- reduction in τw des [1]: roughly twofold
- increase in τw deact [1]: around 2 fold
- decrease in AMPAR subunit activity (inhibition of the whole-cell current) [1]: 5 fold
- Amplitude (glutamate plus TC compound) (GluA1): 177±20 pA
- Amplitude, applying glutamate alone after TC compound (GluA1): 848±82 pA
- IC50 (GluA1; [2]): 3.42 µM
- IC50 (GluA1; [3]): 3.39 µM
- A/AI (GluA1): 4.91±0.1
- t deact (GluA1): 5.3 ± 0.4 ms
- t des (GluA1): 1.3 ± 0.1 ms
- decrease in τw des (GluA1/2): around 1.3 fold
- Amplitude (glutamate plus TC compound) (GluA1/2): 126±12 pA
- Amplitude, applying glutamate alone after TC compound (GluA1/2): 604±62 pA
- IC50 (GluA1/2; [2]): 3.36 µM
- IC50 (GluA1/2; [3]): 3.39 µM
- A/AI (GluA1/2): 4.98±0.06
- t deact (GluA1/2): 5.8 ± 0.4 ms
- t des (GluA1/2): 3.9 ± 0.4 ms

Compound: COc1ccc(-c2nc(C(=O)Nc3ccccc3)cs2)cc1 [TC-3]
- Amplitude (glutamate plus TC compound) (GluA2/3): 159±25 pA
- Amplitude, applying glutamate alone after TC compound (GluA2/3): 456±76 pA
- IC50 (GluA2/3; [2]): 5.53 µM
- IC50 (GluA2/3; [3]): 5.5 µM
- A/AI (GluA2/3): 3.06±0.07
- t deact (GluA2/3): 3.4 ± 0.4 ms
- t des (GluA2/3): 1.8 ± 0.2 ms
- reduction in τw des [1]: little effect
- increase in τw deact [1]: weaker effects
- decrease in AMPAR subunit activity (inhibition of the whole-cell current) [1]: ~3 fold
- Amplitude (glutamate plus TC compound) (GluA1): 287±38 pA
- Amplitude, applying glutamate alone after TC compound (GluA1): 799±95 pA
- IC50 (GluA1; [2]): 5.73 µM
- IC50 (GluA1; [3]): 5.75 µM
- A/AI (GluA1): 2.97±0.03
- t deact (GluA1): 3.0 ± 0.2 ms
- t des (GluA1): 2.0 ± 0.1 ms
- influence on τw des (GluA1): negligible
- Amplitude (glutamate plus TC compound) (GluA1/2): 197±24 pA
- Amplitude, applying glutamate alone after TC compound (GluA1/2): 565±72 pA
- IC50 (GluA1/2; [2]): 5.64 µM
- IC50 (GluA1/2; [3]): 5.62 µM
- A/AI (GluA1/2): 3.09±0.02
- t deact (GluA1/2): 3.3 ± 0.3 ms
- t des (GluA1/2): 4.2 ± 0.3 ms

Compound: COc1ccc(-c2nc(C(=O)Nc3ccc(C(C)(C)C)cc3)cs2)cc1 [TC-4]
- Amplitude (glutamate plus TC compound) (GluA2/3): 183±36 pA
- Amplitude, applying glutamate alone after TC compound (GluA2/3): 460±95 pA
- IC50 (GluA2/3; [2]): 5.64 µM
- IC50 (GluA2/3; [3]): 5.62 µM
- A/AI (GluA2/3): 2.59±0.05
- t deact (GluA2/3): 3.3 ± 0.3 ms
- t des (GluA2/3): 1.9 ± 0.2 ms
- reduction in τw des [1]: little effect
- increase in τw deact [1]: weaker effects
- decrease in AMPAR subunit activity (inhibition of the whole-cell current) [1]: ~2.5 fold
- Amplitude (glutamate plus TC compound) (GluA1): 331±50 pA
- Amplitude, applying glutamate alone after TC compound (GluA1): 816±114 pA
- IC50 (GluA1; [2]): 5.88 µM
- IC50 (GluA1; [3]): 5.89 µM
- A/AI (GluA1): 2.53±0.02
- t deact (GluA1): 2.9 ± 0.1 ms
- t des (GluA1): 2.1 ± 0.1 ms
- influence on τw des (GluA1): negligible
- Amplitude (glutamate plus TC compound) (GluA1/2): 221±26 pA
- Amplitude, applying glutamate alone after TC compound (GluA1/2): 609±77 pA
- IC50 (GluA1/2; [2]): 5.78 µM
- IC50 (GluA1/2; [3]): 5.75 µM
- A/AI (GluA1/2): 2.86±0.02
- t deact (GluA1/2): 3.2 ± 0.4 ms
- t des (GluA1/2): 4.4 ± 0.3 ms
